PubChem BioAssay AID330 (DTP/NCI, 2004)
Where “and” joins values, the source holds several entries; their conditions need not be identical. Identical values can stand only once. Inconclusive results and toxic doses are left out.

Tested on: P388 leukemia ip, CD2F1 mice, survival T/C
Assay: NCI In Vivo Anticancer Drug Screen. Data for tumor model P388 Leukemia (intraperitoneal) in CD2F1 (CDF1) mice
Settings: endpoint: median survival time, higher = longer survival
Outline: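 Mice carrying the transplanted tumor received test compound or vehicle. Survival was recorded in each group, and the value is the treated-group measurement divided by that of the vehicle-treated control group.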

[1] = dose: 12.5 mg/kg/injection, schedule: Q01DX009 (ip), vehicle: saline with Tween-80
[2] = dose: 25.0 mg/kg/injection, schedule: Q01DX009 (ip), vehicle: saline with Tween-80
[3] = dose: 50.0 mg/kg/injection, schedule: Q01DX009 (ip), vehicle: saline with Tween-80
[4] = dose: 60.0 mg/kg/injection, schedule: Q01DX005 (ip), vehicle: Klucel (hydroxypropylcellulose) (HPC)
[5] = dose: 120.0 mg/kg/injection, schedule: Q01DX005 (ip), vehicle: Klucel (hydroxypropylcellulose) (HPC)
[6] = dose: 240.0 mg/kg/injection, schedule: Q01DX005 (ip), vehicle: Klucel (hydroxypropylcellulose) (HPC)
[7] = dose: 25.0 mg/kg/injection, schedule: Q01DX001 (ip), vehicle: Klucel (hydroxypropylcellulose) (HPC)
[8] = dose: 50.0 mg/kg/injection, schedule: Q01DX001 (ip), vehicle: Klucel (hydroxypropylcellulose) (HPC)
[9] = dose: 100.0 mg/kg/injection, schedule: Q01DX001 (ip), vehicle: Klucel (hydroxypropylcellulose) (HPC)

For `O=C(c1ccccc1)C1C(=O)c2cc3c(cc2C1=O)C(=O)C(C(=O)c1ccccc1)C3=O`, the T/C (dose: 25.0 mg/kg/injection, schedule: Q04DX002 (ip), vehicle: saline with Tween-80) was 99 % of control, the T/C (dose: 50.0 mg/kg/injection, schedule: Q04DX002 (ip), vehicle: saline with Tween-80) was 95 % of control and the T/C (dose: 100.0 mg/kg/injection, schedule: Q04DX002 (ip), vehicle: saline with Tween-80) was 95 % of control.

`CCCCCCC[n+]1cccc(S(=O)(=O)N2CCOCC2)c1` was tested, and the T/C [1] was 98 % of control, the T/C [2] was 98 % of control and the T/C [3] was 98 % of control.

For `Nc1cc2c(c[n+](CCCCCCC[n+]3cc4c5ccccc5c(N)cc4c4ccccc43)c3ccccc23)c2ccccc12`, the T/C (dose: 1.56 mg/kg/injection, schedule: Q04DX003 (ip), vehicle: other) was 150 % of control and 153 % of control, the T/C (dose: 3.13 mg/kg/injection, schedule: Q04DX003 (ip), vehicle: other) was 155 % of control and the T/C (dose: 6.25 mg/kg/injection, schedule: Q04DX003 (ip), vehicle: other) was 150 % of control and 173 % of control. The T/C (dose: 12.5 mg/kg/injection, schedule: Q04DX003 (ip), vehicle: other) was 166 % of control and 180 % of control.

With `COC(=O)/C=N/NS(=O)(=O)c1cccc(N)c1` the T/C (dose: 12.5 mg/kg/injection, schedule: Q01DX009 (ip), vehicle: water) was 99 % of control, the T/C (dose: 25.0 mg/kg/injection, schedule: Q01DX009 (ip), vehicle: water) was 107 % of control and the T/C (dose: 50.0 mg/kg/injection, schedule: Q01DX009 (ip), vehicle: water) was 92 % of control. For the same molecule, the T/C (dose: 100.0 mg/kg/injection, schedule: Q01DX009 (ip), vehicle: water) was 99 % of control and 102 % of control and the T/C (dose: 200.0 mg/kg/injection, schedule: Q01DX009 (ip), vehicle: water) was 98 % of control.

With `S=C1N(c2ccccc2)CCN1c1ccccc1` the T/C [4] was 101 % of control, the T/C [5] was 100 % of control and the T/C [6] was 94 % of control.

For `CCOC1(C)OC2OC(COC(C)=O)C(OC(C)=O)C(OC(C)=O)C2O1` (stereo not drawn), the T/C (dose: 4.0 mg/kg/injection, schedule: Q01DX009 (ip), vehicle: other) was 95 % of control, the T/C (dose: 8.0 mg/kg/injection, schedule: Q01DX009 (ip), vehicle: other) was 99 % of control and the T/C (dose: 16.0 mg/kg/injection, schedule: Q01DX009 (ip), vehicle: other) was 102 % of control. The T/C (dose: 32.0 mg/kg/injection, schedule: Q01DX009 (ip), vehicle: other) was 104 % of control, the T/C (dose: 50.0 mg/kg/injection, schedule: Q01DX009 (ip), vehicle: other) was 95 % of control and the T/C (dose: 64.0 mg/kg/injection, schedule: Q01DX009 (ip), vehicle: other) was 98 % of control. For the same molecule, the T/C (dose: 100.0 mg/kg/injection, schedule: Q01DX009 (ip), vehicle: other) was 100 % of control, the T/C (dose: 200.0 mg/kg/injection, schedule: Q01DX009 (ip), vehicle: other) was 104 % of control and the T/C (dose: 400.0 mg/kg/injection, schedule: Q01DX009 (ip), vehicle: other) was 95 % of control.

`Cn1c(=O)c2[nH]c(CN(CCCl)CCCl)nc2n(C)c1=O` was tested, and the T/C (dose: 0.66 mg/kg/injection, schedule: Q01DX009 (ip), vehicle: saline with Tween-80) was 109 % of control, the T/C (dose: 1.0 mg/kg/injection, schedule: Q01DX009 (ip), vehicle: saline with Tween-80) was 115 % of control and the T/C (dose: 6.6 mg/kg/injection, schedule: Q04DX003 (ip), vehicle: saline with Tween-80) was 95 % of control. For the same molecule, the T/C (dose: 10.0 mg/kg/injection, schedule: Q04DX003 (ip), vehicle: saline with Tween-80) was 113 % of control, the T/C [1] was 263 % of control and the T/C (dose: 12.5 mg/kg/injection, schedule: Q04DX003 (ip), vehicle: saline with Tween-80) was 150 % of control. For the same molecule, the T/C [2] was 219 % of control, the T/C (dose: 25.0 mg/kg/injection, schedule: Q04DX003 (ip), vehicle: saline with Tween-80) was 163 % of control and the T/C (dose: 50.0 mg/kg/injection, schedule: Q04DX003 (ip), vehicle: saline with Tween-80) was 218 % of control.

In the case of `O=C(Oc1c(Cc2ccccc2)c(=O)[nH]c2ccccc12)c1ccccc1`, the T/C [4] is reported as 90 % of control and the T/C [5] is reported as 89 % of control.

For `O=C(/C=C/C1N=C1c1ccccc1)c1ccccc1` (stereo not drawn), the T/C [7] was 100 % of control, the T/C [8] was 107 % of control and the T/C [9] was 106 % of control and 107 % of control.

With `CCOC(=O)c1cnc2cc(C(F)(F)F)ccc2c1Nc1ccc2c(c1)OCO2` the T/C [4] was 100 % of control, the T/C [5] was 102 % of control and the T/C [6] was 98 % of control.

With `CCOC(=O)c1c(C)c2c(n1C)CCC(C(=O)OCC)C2=O` (stereo not drawn) the T/C (dose: 50.0 mg/kg/injection, schedule: Q04DX003 (ip), vehicle: Klucel (hydroxypropylcellulose) (HPC)) was 107 % of control, the T/C (dose: 100.0 mg/kg/injection, schedule: Q04DX003 (ip), vehicle: Klucel (hydroxypropylcellulose) (HPC)) was 100 % of control and the T/C (dose: 200.0 mg/kg/injection, schedule: Q04DX003 (ip), vehicle: Klucel (hydroxypropylcellulose) (HPC)) was 91 % of control.

In the case of `CC(=O)Oc1ccc(/C(C)=N/NC(=O)C(C)SC(C)C(=O)N/N=C(\C)c2ccc(OC(C)=O)cc2)cc1` (stereo not drawn), the T/C (dose: 50.0 mg/kg/injection, schedule: Q01DX005 (ip), vehicle: Klucel (hydroxypropylcellulose) (HPC)) is reported as 108 % of control, the T/C (dose: 100.0 mg/kg/injection, schedule: Q01DX005 (ip), vehicle: Klucel (hydroxypropylcellulose) (HPC)) is reported as 105 % of control and the T/C (dose: 200.0 mg/kg/injection, schedule: Q01DX005 (ip), vehicle: Klucel (hydroxypropylcellulose) (HPC)) is reported as 106 % of control.

With `CCOC(=O)C(OCC)C1=Cc2ccccc2CC1` (stereo not drawn) the T/C [7] was 93 % of control, the T/C [8] was 100 % of control and the T/C [9] was 93 % of control. The T/C (dose: 200.0 mg/kg/injection, schedule: Q01DX001 (ip), vehicle: Klucel (hydroxypropylcellulose) (HPC)) was 102 % of control and the T/C (dose: 400.0 mg/kg/injection, schedule: Q01DX001 (ip), vehicle: Klucel (hydroxypropylcellulose) (HPC)) was 107 % of control.

`Cc1ccc(S(=O)(=O)C(=O)N2CCN(C(=O)S(=O)(=O)c3ccc(C)cc3)CC2)cc1` was tested, and the T/C [3] was 100 % of control, the T/C (dose: 100.0 mg/kg/injection, schedule: Q01DX009 (ip), vehicle: saline with Tween-80) was 107 % of control and the T/C (dose: 200.0 mg/kg/injection, schedule: Q01DX009 (ip), vehicle: saline with Tween-80) was 109 % of control.

`CCCCN(CCCC)c1cc(C(=O)CCCCCN)c2ccccc2n1` was tested, and the T/C (dose: 6.25 mg/kg/injection, schedule: Q01DX005 (ip), vehicle: saline) was 97 % of control, the T/C (dose: 12.5 mg/kg/injection, schedule: Q01DX005 (ip), vehicle: saline) was 90 % of control and the T/C (dose: 25.0 mg/kg/injection, schedule: Q01DX005 (ip), vehicle: saline) was 90 % of control and 94 % of control.

`O=C(NCc1ccccc1)OCc1c(COC(=O)NCc2ccccc2)c(-c2ccc(Cl)c(Cl)c2)n2c1CCC2` was tested, and the T/C (dose: 3.13 mg/kg/injection, schedule: Q01DX009 (ip), vehicle: distilled water + Tween-80) was 105 % of control, the T/C (dose: 6.25 mg/kg/injection, schedule: Q01DX009 (ip), vehicle: distilled water + Tween-80) was 151 % of control and the T/C (dose: 12.5 mg/kg/injection, schedule: Q01DX009 (ip), vehicle: distilled water + Tween-80) was 158 % of control and 161 % of control. The T/C (dose: 25.0 mg/kg/injection, schedule: Q01DX009 (ip), vehicle: distilled water + Tween-80) was 160 % of control and 174 % of control, the T/C (dose: 50.0 mg/kg/injection, schedule: Q01DX009 (ip), vehicle: distilled water + Tween-80) was 164 % of control and 182 % of control and the T/C (dose: 100.0 mg/kg/injection, schedule: Q01DX009 (ip), vehicle: distilled water + Tween-80) was 194 % of control and 196 % of control.

With `COc1c(Cc2ccccc2O)c(O)cc(O)c1C(=O)CCc1ccccc1` the T/C (dose: 0.25 mg/kg/injection, schedule: Q01DX009 (ip), vehicle: Klucel (hydroxypropylcellulose) (HPC)) was 100 % of control, the T/C (dose: 0.5 mg/kg/injection, schedule: Q01DX009 (ip), vehicle: Klucel (hydroxypropylcellulose) (HPC)) was 101 % of control and the T/C (dose: 1.0 mg/kg/injection, schedule: Q01DX009 (ip), vehicle: Klucel (hydroxypropylcellulose) (HPC)) was 107 % of control. The T/C (dose: 2.0 mg/kg/injection, schedule: Q01DX009 (ip), vehicle: Klucel (hydroxypropylcellulose) (HPC)) was 113 % of control, the T/C (dose: 4.0 mg/kg/injection, schedule: Q01DX009 (ip), vehicle: Klucel (hydroxypropylcellulose) (HPC)) was 104 % of control and the T/C (dose: 8.0 mg/kg/injection, schedule: Q01DX009 (ip), vehicle: Klucel (hydroxypropylcellulose) (HPC)) was 100 % of control. For the same molecule, the T/C (dose: 16.0 mg/kg/injection, schedule: Q01DX009 (ip), vehicle: Klucel (hydroxypropylcellulose) (HPC)) was 96 % of control and the T/C (dose: 32.0 mg/kg/injection, schedule: Q01DX009 (ip), vehicle: Klucel (hydroxypropylcellulose) (HPC)) was 100 % of control.

In the case of `O=c1oc2ccccc2cc1S(=O)(=O)c1ccc(Cl)cc1`, the T/C (dose: 60.0 mg/kg/injection, schedule: Q01DX005 (ip), vehicle: saline with Tween-80) is reported as 91 % of control, the T/C (dose: 120.0 mg/kg/injection, schedule: Q01DX005 (ip), vehicle: saline with Tween-80) is reported as 92 % of control and the T/C (dose: 240.0 mg/kg/injection, schedule: Q01DX005 (ip), vehicle: saline with Tween-80) is reported as 91 % of control.
